Measurements from ChEMBL document CHEMBL4359885, “Novel multi target-directed ligands targeting 5-HT4 receptors with in cellulo antioxidant properties as promising leads in Alzheimer's disease” (Eur J Med Chem, 2019).
Active and inactive are the calls of the source. The rule behind the calls is not given here.

How the values were obtained:
[1] = target: T1, 5-hydroxytryptamine receptor 4 (Homo sapiens, UniProt Q13639); experiment: Displacement of [3H]-GR 113808 from recombinant human brain 5HT4 receptor at 10^-8 M measured after 60 mins by radio ligand binding assay relative to control
T1 sequence (Q13639 whole entry): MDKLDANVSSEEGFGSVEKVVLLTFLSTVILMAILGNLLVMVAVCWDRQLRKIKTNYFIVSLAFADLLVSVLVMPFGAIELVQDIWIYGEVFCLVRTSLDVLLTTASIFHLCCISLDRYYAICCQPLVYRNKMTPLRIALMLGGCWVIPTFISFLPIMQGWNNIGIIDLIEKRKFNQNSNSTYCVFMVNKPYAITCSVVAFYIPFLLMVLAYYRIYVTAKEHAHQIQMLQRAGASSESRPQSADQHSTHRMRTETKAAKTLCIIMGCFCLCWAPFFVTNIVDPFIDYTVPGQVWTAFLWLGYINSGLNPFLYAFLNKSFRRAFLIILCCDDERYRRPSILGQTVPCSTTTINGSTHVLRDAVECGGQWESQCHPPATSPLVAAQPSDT

[2] = target: T1, 5-hydroxytryptamine receptor 4; experiment: Displacement of [3H]-GR 113808 from recombinant human brain 5HT4 receptor at 10^-6 M measured after 60 mins by radio ligand binding assay relative to control
[3] = Antioxidant activity assessed as DPPH radical scavenging activity measured after 120 mins; assay type: functional
[4] = Antioxidant activity assessed as […] radical scavenging activity preincubated for 30 mins followed by AAPH addition and measured every minute for 2 hrs by ORAC fluorescein assay relative to trolox; assay type: functional
[5] = target: Acetylcholinesterase (Homo sapiens, UniProt P22303); experiment: Inhibition of human erythrocytes AChE assessed as reduction in 5-thio-2-nitrobenzoate anion formation using acetylthiocholine iodide as substrate preincubated for 5 mins followed by substrate addition by Ellman's method
Chain of Acetylcholinesterase (P22303 whole entry): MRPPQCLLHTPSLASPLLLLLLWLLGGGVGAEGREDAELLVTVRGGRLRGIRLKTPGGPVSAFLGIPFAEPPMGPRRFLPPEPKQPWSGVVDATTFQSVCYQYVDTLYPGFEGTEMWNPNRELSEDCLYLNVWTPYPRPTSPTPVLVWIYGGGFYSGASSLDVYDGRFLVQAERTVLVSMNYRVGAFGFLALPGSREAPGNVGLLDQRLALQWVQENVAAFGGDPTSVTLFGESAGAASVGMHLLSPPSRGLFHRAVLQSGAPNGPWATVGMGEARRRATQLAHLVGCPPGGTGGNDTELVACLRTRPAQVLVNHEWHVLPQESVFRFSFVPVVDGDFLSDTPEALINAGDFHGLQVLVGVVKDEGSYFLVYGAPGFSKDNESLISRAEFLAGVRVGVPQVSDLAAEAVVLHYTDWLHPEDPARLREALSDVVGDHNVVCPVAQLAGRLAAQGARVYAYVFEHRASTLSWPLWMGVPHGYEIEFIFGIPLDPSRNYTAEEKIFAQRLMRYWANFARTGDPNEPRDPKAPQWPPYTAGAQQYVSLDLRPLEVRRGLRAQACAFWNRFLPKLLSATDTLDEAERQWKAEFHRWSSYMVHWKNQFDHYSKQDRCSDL

[6] = target: T1, 5-hydroxytryptamine receptor 4; experiment: Agonist activity at human HA-tagged 5HT4 receptor expressed in COS7 cells assessed as induction of cAMP production measured after 10 mins by HTRF assay relative to control; assay type: functional, cell-based
[7] = target: T1, 5-hydroxytryptamine receptor 4; experiment: Displacement of [3H]-GR 113808 from recombinant human brain 5HT4 receptor measured after 60 mins by radio ligand binding assay
[8] = target: T1, 5-hydroxytryptamine receptor 4; experiment: Binding affinity to recombinant human brain 5HT4 receptor by radio ligand binding assay
[9] = tested on: SH-SY5Y; experiment: Cytotoxicity against human SH-SY5Y cells assessed as reduction in cell viability at 50 uM measured after 24 hrs by MTT assay relative to control; assay type: cell-based
[10] = tested on: SH-SY5Y; experiment: Cytotoxicity against human SH-SY5Y cells assessed as reduction in cell viability at 0.5 to 10 uM measured after 24 hrs by MTT assay; assay type: cell-based
[11] = target: T1, 5-hydroxytryptamine receptor 4; experiment: Partial agonist activity at human HA-tagged 5HT4 receptor expressed in COS7 cells assessed as induction of cAMP production measured after 10 mins by HTRF assay; assay type: functional, cell-based
[12] = tested on: SH-SY5Y; experiment: Antioxidant activity in human SH-SY5Y cells assessed as inhibition of t-BuOOH-induced intracellular oxidative stress by measuring ROS level at 10 uM preincubated for 24 hrs followed by t-BuOOH addition and measured after 30 mins by DCFH-DA dye-based fluorescence assay relative to control; assay type: functional
[13] = tested on: SH-SY5Y; experiment: Cytotoxicity against human SH-SY5Y cells assessed as reduction in cell viability at 0.5 to 10 uM after 24 hrs by MTT assay relative to control; assay type: cell-based
[14] = tested on: SH-SY5Y; experiment: Antioxidant activity in human SH-SY5Y cells assessed as inhibition of t-BuOOH-induced intracellular oxidative stress by measuring ROS level at 100 uM preincubated for 24 hrs followed by t-BuOOH addition and measured after 30 mins by DCFH-DA dye-based fluorescence assay; assay type: functional, cell-based

Question: For `NCCc1c[nH]c2ccc(O)cc12`, which inhibition [1] is on record?
Answer: 0%

Question: What about the inhibition [2] of the same compound?
Answer: 65%

Question: Which results are given for `COc1cc(CN2CCC(CCC(=O)c3cc(Cl)c(N)cc3OC)CC2)ccc1OCc1ccccc1`?
Answer: inhibition [1]: 0%; inhibition [2]: 97%; EC50 [3]: > 250000 nM; fold change (FC) [4]: < 0.2

Question: For `O=c1c(O)c(-c2ccc(O)c(O)c2)oc2cc(O)cc(O)c12` [QUERCETIN], which EC50 [3] is on record?
Answer: 9300 nM

Question: What about the fold change (FC) [4] of the same compound?
Answer: 6.5

Question: With `COc1cc(CN2CCC(CCC(=O)c3cc(Cl)c(N)cc3OC)CC2)ccc1O` as the compound, how does the inhibition [1] read?
Answer: 7%

Question: What about the inhibition [2] of the same compound?
Answer: 95%

Question: What about the EC50 [3] of the same compound?
Answer: 180000 nM

Question: And the fold change (FC) [4]?
Answer: 3.88

Question: What about the IC50 [5] of the same compound?
Answer: 535 nM

Question: With `COc1ccc(CN2CCC(CCC(=O)c3cc(Cl)c(N)cc3OC)CC2)cc1O` as the compound, how does the Emax [6] read?
Answer: 57%

Question: What about the inhibition [1] of the same compound?
Answer: 64%

Question: And the inhibition [2]?
Answer: 100%

Question: What about the IC50 [7] of the same compound?
Answer: 14.5 nM

Question: What about the Ki [8] of the same compound?
Answer: 12.7 nM

Question: What about the Activity [9] of the same compound?
Answer: 40%

Question: What about the Activity [10] of the same compound?
Answer: Non-Toxic

Question: And the EC50 [11]?
Answer: 1.4 nM

Question: And the inhibition at 10 µM [12]?
Answer: 50%

Question: What about the EC50 [3] of the same compound?
Answer: 85500 nM

Question: And the fold change (FC) [4]?
Answer: 3.41

Question: For `COc1ccc(CN2CCC(CCC(=O)c3cc(Cl)c(N)cc3OC)CC2)cc1OCc1ccccc1`, which inhibition [1] is on record?
Answer: 7%

Question: What about the inhibition [2] of the same compound?
Answer: 88%

Question: What about the EC50 [3] of the same compound?
Answer: > 250000 nM

Question: And the fold change (FC) [4]?
Answer: < 0.2

Question: Which Emax [6] does the source give for `COc1cc(/C=C/C(=O)NCCN2CCC(CCC(=O)c3cc(Cl)c(N)cc3OC)CC2)ccc1O` here?
Answer: 47%

Question: And the inhibition [1]?
Answer: 39%

Question: And the inhibition [2]?
Answer: 100%

Question: What about the IC50 [7] of the same compound?
Answer: 101 nM

Question: What about the Ki [8] of the same compound?
Answer: 101 nM

Question: What about the Activity [9] of the same compound?
Answer: 68%

Question: What about the EC50 [11] of the same compound?
Answer: 4.5 nM

Question: And the inhibition at 10 µM [12]?
Answer: 50%

Question: What about the EC50 [3] of the same compound?
Answer: 45500 nM

Question: What about the fold change (FC) [4] of the same compound?
Answer: 1.47

Question: What about the Activity [13] of the same compound?
Answer: 12%

Question: Which EC50 [3] does the source give for `Cc1c(C)c2c(c(C)c1O)CCC(C)(C(=O)O)O2` (stereo not drawn) [TROLOX] here?
Answer: 22900 nM

Question: What about the inhibition [14] of the same compound?
Answer: Active

Question: With `COc1cc(N)c(Cl)cc1C(=O)CCC1CCN(Cc2ccc(O)c(O)c2)CC1` as the compound, how does the Emax [6] read?
Answer: 72%

Question: And the inhibition [1]?
Answer: 76%

Question: And the inhibition [2]?
Answer: 100%

Question: What about the IC50 [7] of the same compound?
Answer: 7.5 nM

Question: And the Ki [8]?
Answer: 5.9 nM

Question: And the Activity [9]?
Answer: 37%

Question: What about the Activity [10] of the same compound?
Answer: Non-Toxic

Question: And the EC50 [11]?
Answer: 2.8 nM

Question: What about the inhibition at 10 µM [12] of the same compound?
Answer: 50%

Question: What about the EC50 [3] of the same compound?
Answer: 19600 nM

Question: What about the fold change (FC) [4] of the same compound?
Answer: 3.4

Question: And the IC50 [5]?
Answer: 138 nM

Question: Which results are given for `COc1cc(N)c(Cl)cc1C(=O)CCC1CCN(Cc2ccc3c(c2)OCO3)CC1`?
Answer: inhibition [1]: 22%; inhibition [2]: 100%; EC50 [3]: > 250000 nM; fold change (FC) [4]: < 0.2

Question: For `COc1cc(N)c(Cl)cc1C(=O)CCC1CCN(CCNC(=O)CCCC[C@@H]2CCSS2)CC1`, which inhibition [1] is on record?
Answer: 26%

Question: And the inhibition [2]?
Answer: 99%

Question: And the Activity [9]?
Answer: 48%

Question: What about the Activity [10] of the same compound?
Answer: Non-Toxic

Question: What about the inhibition [12] of the same compound?
Answer: inactive

Question: What about the EC50 [3] of the same compound?
Answer: > 250000 nM

Question: And the fold change (FC) [4]?
Answer: 0.76

Question: For `COc1cc(N)c(Cl)cc1C(=O)CCC1CCN(Cc2ccc(OCc3ccccc3)c(OCc3ccccc3)c2)CC1`, which inhibition [1] is on record?
Answer: 3%

Question: And the inhibition [2]?
Answer: 89%

Question: And the EC50 [3]?
Answer: > 250000 nM

Question: And the fold change (FC) [4]?
Answer: < 0.2
